Experimental data published in patent EP0090603A2, “Antibacterial compounds” (BEECHAM GROUP PLC, priority 1982, dated 1983).
Converted amounts (≈) assume the structure as drawn.

How the values were obtained:
Past. multocida PA1 = assay: MIC against Veterinary Bacteria, in vitro agar dilution; details: Pasteurella multocida, PA1, 18 h, read-out: MIC's against Past. multocida PA1
Procedure: (§1) The activity of the compounds of the Examples against various veterinarily important bacteria, was assayed in vitro using two-fold serial dilutions in Diagnostic Sensitivity Test Agar inoculated with 10^4 organisms.

[1] = tested on: M. suipneumoniae NCTC 10110; assay: MIC against Mycoplasma, in vitro agar dilution; format: cell-based; details: Mesomycoplasma hyopneumoniae, NCTC10110, 144 h; Friis broth solidified with 0.9% agarose, 10^3 to 10^5 C.F.U., 6 days at 37°C; read-out: MIC's against M. suipneumoniae NCTC 10110
[2] = tested on: M. suipneumoniae J2206/183^b; assay: MIC against Mycoplasma, in vitro agar dilution; format: cell-based; details: Mesomycoplasma hyopneumoniae, 144 h; Friis broth solidified with 0.9% agarose, 10^3 to 10^5 C.F.U., 6 days at 37°C; read-out: MIC's against M. suipneumoniae J2206/183^b
S. dublin S7 = assay: MIC against Veterinary Bacteria, in vitro agar dilution; details: Salmonella enterica, S7, 18 h, read-out: MIC's against S. dublin S7
Procedure: as §1

[3] = tested on: M. suipneumoniae PW/C/210; assay: MIC against Mycoplasma, in vitro agar dilution; format: cell-based; details: Mesomycoplasma hyopneumoniae, 144 h; Friis broth solidified with 0.9% agarose, 10^3 to 10^5 C.F.U., 6 days at 37°C; read-out: MIC's against M. suipneumoniae PW/C/210
S. typhimurium S18 = assay: MIC against Veterinary Bacteria, in vitro agar dilution; details: Salmonella enterica, TYPHIMURIUM, 18 h, read-out: MIC's against S. typhimurium S18
Procedure: as §1

Bord. bronchiseptica B09 = assay: as above; details: Bordetella bronchiseptica, B09, 18 h, read-out: MIC's against Bord. bronchiseptica B09
Procedure: as §1

M. suipneumoniae TAM 6N = assay: MIC against Mycoplasma, in vitro agar dilution; format: cell-based; details: Mesomycoplasma hyopneumoniae, TAM6N, 144 h; Friis broth solidified with 0.9% agarose, 10^3 to 10^5 C.F.U., 6 days at 37°C; read-out: MIC's against M. suipneumoniae TAM 6N
M. suipneumoniae UCD 1 = assay: MIC against Mycoplasma, in vitro agar dilution; format: cell-based; details: Mesomycoplasma hyopneumoniae, UCD1, 144 h; Friis broth solidified with 0.9% agarose, 10^3 to 10^5 C.F.U., 6 days at 37°C; read-out: MIC's against M. suipneumoniae UCD 1
Past. multocida PA2 = assay: MIC against Veterinary Bacteria, in vitro agar dilution; details: Pasteurella multocida, PA2, 18 h, read-out: MIC's against Past. multocida PA2
Procedure: as §1

Past. haemolytica PA5 = assay: as above; details: Mannheimia haemolytica, PA5, 18 h, read-out: MIC's against Past. haemolytica PA5
Procedure: as §1

[4] = tested on: Erysipelothrix rhusiopathiae NCTC 8163; assay: as above; details: Erysipelothrix rhusiopathiae, NCTC8163, 18 h, read-out: MIC's against Erysipelothrix rhusiopathiae NCTC 8163
Procedure: as §1

Strep. dysgalactiae SPD1 = assay: as above; details: Streptococcus dysgalactiae, SPD1, 18 h, read-out: MIC's against Strep. dysgalactiae SPD1
Procedure: as §1

Strep. uberis SPU1 = assay: as above; details: Streptococcus uberis, SPU1, 18 h, read-out: MIC's against Strep. uberis SPU1
Procedure: as §1

[5] = tested on: Staph. aureus B4 (pen. resistant); assay: as above; details: Staphylococcus aureus, 18 h, read-out: MIC's against Staph. aureus B4 (pen. resistant)
Procedure: as §1

M. suipneumoniae Str. 11 = assay: MIC against Mycoplasma, in vitro agar dilution; format: cell-based; details: Mesomycoplasma hyopneumoniae, STR.11, 144 h; Friis broth solidified with 0.9% agarose, 10^3 to 10^5 C.F.U., 6 days at 37°C; read-out: MIC's against M. suipneumoniae Str. 11
M. suipneumoniae MS 16 = assay: MIC against Mycoplasma, in vitro agar dilution; format: cell-based; details: Mesomycoplasma hyopneumoniae, MS16, 144 h; Friis broth solidified with 0.9% agarose, 10^3 to 10^5 C.F.U., 6 days at 37°C; read-out: MIC's against M. suipneumoniae MS 16
[6] = tested on: M. suipneumoniae ATCC 25095; assay: MIC against Mycoplasma, in vitro agar dilution; format: cell-based; details: Mesomycoplasma hyopneumoniae, ATCC25095, 144 h; Friis broth solidified with 0.9% agarose, 10^3 to 10^5 C.F.U., 6 days at 37°C; read-out: MIC's against M. suipneumoniae ATCC 25095
M. suipneumoniae HK(2) = assay: MIC against Mycoplasma, in vitro agar dilution; format: cell-based; details: Mesomycoplasma hyopneumoniae, 144 h; Friis broth solidified with 0.9% agarose, 10^3 to 10^5 C.F.U., 6 days at 37°C; read-out: MIC's against M. suipneumoniae HK(2)
M. suipneumoniae LABER = assay: MIC against Mycoplasma, in vitro agar dilution; format: cell-based; details: Mesomycoplasma hyopneumoniae, 144 h; Friis broth solidified with 0.9% agarose, 10^3 to 10^5 C.F.U., 6 days at 37°C; read-out: MIC's against M. suipneumoniae LABER
M. dispar NCTC 10125 = assay: MIC against Mycoplasma, in vitro agar dilution; format: cell-based; details: 144 h; Friis broth solidified with 0.9% agarose, 10^3 to 10^5 C.F.U., 6 days at 37°C; read-out: MIC's against M. dispar NCTC 10125
Strep. agalactiae SPA1 = assay: MIC against Veterinary Bacteria, in vitro agar dilution; details: Streptococcus agalactiae, SPA1, 18 h, read-out: MIC's against Strep. agalactiae SPA1
Procedure: as §1

M. suipneumoniae JF 435 = assay: MIC against Mycoplasma, in vitro agar dilution; format: cell-based; details: Mesomycoplasma hyopneumoniae, JF435, 144 h; Friis broth solidified with 0.9% agarose, 10^3 to 10^5 C.F.U., 6 days at 37°C; read-out: MIC's against M. suipneumoniae JF 435
M. bovis NCTC 10131 = assay: microbe, parasite or virus in culture; format: cell-based; details: NCTC10131, 144 h, read-out: MIC's against M. bovis NCTC 10131

| SMILES | MIC (Past. multocida PA1) | MIC [1] | MIC [2] | MIC (S. dublin S7) | MIC [3] | MIC (S. typhimurium S18) | MIC (Bord. bronchiseptica B09) | MIC (M. suipneumoniae TAM 6N) | MIC (M. suipneumoniae UCD 1) | MIC (Past. multocida PA2) | MIC (Past. haemolytica PA5) | MIC [4] | MIC (Strep. dysgalactiae SPD1) | MIC (Strep. uberis SPU1) | MIC [5] | MIC (M. suipneumoniae Str. 11) | MIC (M. suipneumoniae MS 16) | MIC [6] | MIC (M. suipneumoniae HK(2)) | MIC (M. suipneumoniae LABER) | also measured |
| --- | --- | --- | --- | --- | --- | --- | --- | --- | --- | --- | --- | --- | --- | --- | --- | --- | --- | --- | --- | --- | --- |
| CCOC(=O)C(C)=C(C)CC1OCC(CC2OC2C(C)C(C)O)C(O)C1O [Example 1, Ethyl 4-[5S-(2S,3S-epoxy-5S-hydroxy-4S-methylhexyl)-3R,4R-dihydroxytetrahydropyran-2S-yl]-2,3-dimethylbut-2(E)-enoate] | 2.5 µg/mL (≈ 6.47 µM) | 1 µg/mL (≈ 2.59 µM) | 2.5 µg/mL (≈ 6.47 µM) | > 80 µg/mL | 0.5 µg/mL (≈ 1.29 µM) | > 80 µg/mL | 80 µg/mL (≈ 207 µM) | 2.5 µg/mL (≈ 6.47 µM) | 2.5 µg/mL (≈ 6.47 µM) | 1.25 µg/mL (≈ 3.23 µM) | 20 µg/mL (≈ 51.7 µM) | 80 µg/mL (≈ 207 µM) | 5 µg/mL (≈ 12.9 µM) | 1.25 µg/mL (≈ 3.23 µM) | 0.625 µg/mL (≈ 1.62 µM) | 1 µg/mL (≈ 2.59 µM) | 0.5 µg/mL (≈ 1.29 µM) | 1 µg/mL (≈ 2.59 µM) | 1 µg/mL (≈ 2.59 µM) | 1 µg/mL (≈ 2.59 µM) | MIC (M. dispar NCTC 10125): 0.25 µg/mL (≈ 0.647 µM); MIC (Strep. agalactiae SPA1): 5 µg/mL (≈ 12.9 µM); MIC (M. suipneumoniae JF 435): 1 µg/mL (≈ 2.59 µM); MIC (M. bovis NCTC 10131): 0.05 µg/mL (≈ 0.129 µM) |
| COC(=O)C(C)=C(C)CC1OCC(CC2OC2C(C)C(C)O)C(O)C1O [Example 2, Methyl 4-[5S-(2S,3S-epoxy-5S-hydroxy-4S-methylhexyl)-3R,4R-dihydroxytetrahydropyran-2S-yl]-2,3-dimethylbut-2(E)-enoate] | 10 µg/mL (≈ 26.8 µM) | 5 µg/mL (≈ 13.4 µM) | 5 µg/mL (≈ 13.4 µM) | > 80 µg/mL | 5 µg/mL (≈ 13.4 µM) | > 80 µg/mL | 40 µg/mL (≈ 107 µM) | 10 µg/mL (≈ 26.8 µM) | 10 µg/mL (≈ 26.8 µM) | 5 µg/mL (≈ 13.4 µM) | 40 µg/mL (≈ 107 µM) | > 80 µg/mL | 40 µg/mL (≈ 107 µM) | 20 µg/mL (≈ 53.7 µM) | 5 µg/mL (≈ 13.4 µM) | 5 µg/mL (≈ 13.4 µM) | 5 µg/mL (≈ 13.4 µM) | 5 µg/mL (≈ 13.4 µM) | 10 µg/mL (≈ 26.8 µM) | 5 µg/mL (≈ 13.4 µM) | MIC (M. dispar NCTC 10125): 1 µg/mL (≈ 2.68 µM); MIC (Strep. agalactiae SPA1): 80 µg/mL (≈ 215 µM); MIC (M. suipneumoniae JF 435): 10 µg/mL (≈ 26.8 µM); MIC (M. bovis NCTC 10131): 0.25 µg/mL (≈ 0.671 µM) |
| CC(CC1OCC(CC2OC2C(C)C(C)O)C(O)C1O)=C(C)C(=O)OCc1cccc([N+](=O)[O-])c1 [Example 3, m-Nitrobenzyl 4-[5S-(2S,3S-epoxy-5S-hydroxy-4S-methylhexyl)-3R,4R-dihydroxytetrahydropyran-2S-yl]-2,3-di-methylbut-2(E)-enoate] | 2.5 µg/mL (≈ 5.07 µM) | 0.05 µg/mL (≈ 0.101 µM) | 0.1 µg/mL (≈ 0.203 µM) | > 80 µg/mL | 0.025 µg/mL (≈ 0.0507 µM) | > 80 µg/mL | 80 µg/mL (≈ 162 µM) | 0.1 µg/mL (≈ 0.203 µM) | 0.05 µg/mL (≈ 0.101 µM) | 1.25 µg/mL (≈ 2.53 µM) | 10 µg/mL (≈ 20.3 µM) | 40 µg/mL (≈ 81 µM) | 0.312 µg/mL (≈ 0.632 µM) | 0.156 µg/mL (≈ 0.316 µM) | 1.25 µg/mL (≈ 2.53 µM) | 0.05 µg/mL (≈ 0.101 µM) | 0.025 µg/mL (≈ 0.0507 µM) | 0.025 µg/mL (≈ 0.0507 µM) | 0.1 µg/mL (≈ 0.203 µM) | 0.05 µg/mL (≈ 0.101 µM) | MIC (M. dispar NCTC 10125): < 0.01 µg/mL; MIC (Strep. agalactiae SPA1): 1.25 µg/mL (≈ 2.53 µM); MIC (M. suipneumoniae JF 435): 0.1 µg/mL (≈ 0.203 µM); MIC (M. bovis NCTC 10131): 0.025 µg/mL (≈ 0.0507 µM) |
| CC(CC1OCC(CC2OC2C(C)C(C)O)C(O)C1O)=C(C)C(=O)O [Example 4, Sodium 4-[5S-(2S, 35-epoxy-5S-hydroxy-4S-methylhexyl)-3R,4R-dihydroxytetrahydropyran-2S-yl]-2,3-dimethylbut-2(E)-enoate] | 5 µg/mL | 0.25 µg/mL | 0.25 µg/mL | > 80 µg/mL | 0.1 µg/mL | > 80 µg/mL | 40 µg/mL | 0.25 µg/mL | 0.25 µg/mL | 2.5 µg/mL | 10 µg/mL | 80 µg/mL | 1.25 µg/mL | 0.156 µg/mL | 1.25 µg/mL | 0.1 µg/mL | 0.1 µg/mL | 0.25 µg/mL | 0.25 µg/mL | 0.1 µg/mL | MIC (M. dispar NCTC 10125): 0.05 µg/mL; MIC (Strep. agalactiae SPA1): 1.25 µg/mL; MIC (M. suipneumoniae JF 435): 0.25 µg/mL; MIC (M. bovis NCTC 10131): 0.025 µg/mL |
